This passage reports MIC results from ChEMBL document CHEMBL3739268, “Structure activity relationships of 4-hydroxy-2-pyridones: A novel class of antituberculosis agents” (Eur J Med Chem, 2015).

The test system of the test is Mycobacterium tuberculosis. Kind of test: Antituberculosis activity against multi-drug resistant Mycobacterium tuberculosis. The format is functional.

Each structure is given as a SMILES string. Converted amounts (≈) assume the structure as drawn.

For orientation: MIC means the lowest concentration that inhibits growth of the organism. A high value points to a less susceptible organism. Consider `CC(C)Cc1cc(O)c(-c2ccccc2)c(=O)[nH]1`, for which the MIC turned out to be 2.5 µM (≈ 0.608 µg/mL). That is a single-digit micromolar value.
`CC1(C)CCC(Cc2cc(O)c(-c3ccccc3)c(=O)[nH]2)CC1` registered a minimal inhibitory concentration (MIC) of 0.04 µM (≈ 0.0125 µg/mL).
